In PMC4519859, “Synthesis and Biological Evaluation of Novel Dehydroabietic Acid Derivatives Conjugated with Acyl-Thiourea Peptide Moiety as Antitumor Agents” (International Journal of Molecular Sciences, 2015):

How the values were obtained:
Format in all cases: cell-based
MGC-803 = assay: MTT cytotoxicity assay, MGC-803; details: Homo sapiens, 48 h, mean ± SD, three independent experiments
Method: (§1) The in vitro cytotoxic potency of DHAA acyl-thiourea derivatives 8a–8o and 9a–9o were evaluated by 3-(4,5-dimethylthiazol-2-yl)-2,5-diphenyltetrazolium bromide (MTT) assay against HeLa, SK-OV-3 and MGC-803 tumor cell lines, with 5-FU as the positive control.
(§2) General procedure for cytotoxic evaluation in vitro: HeLa, HepG2, SK-OV-3 and MGC-803 cells were seeded into 96-well microculture plates and allowed to adhere for 24 h, respectively. After cells were exposed to compounds at concentrations from 100 to 0.01 μM for 48 h, medium was aspirated and replenished with complete medium. IC50 was evaluated by MTT tetrazolium dye assay. Each experiment was performed three times; Statistical analysis: All statistical analysis was performed with SPSS Version 10 (SPSS, Chicago, IL, USA). Data was analyzed by one-way ANOVA. Mean separations were performed using the least significant difference method. Each experiment was replicated thrice, and all experiments yielded similar results. Measurements from all the replicates were combined, and treatment effects were analyzed.

HeLa = assay: MTT cytotoxicity assay, HeLa; details: Homo sapiens, 48 h, mean ± SD, three independent experiments
Method: as §1, §2

HL-7702 = assay: MTT cytotoxicity assay, HL-7702 normal cells; details: L02, 48 h, normal human cells, mean ± SD, three independent experiments
Method: [The source words this procedure for another cell line and reports this cell line under the same test.] as §1, §2

SK-OV-3 = assay: MTT cytotoxicity assay, SK-OV-3; details: Homo sapiens, 48 h, mean ± SD, three independent experiments
Method: as §1, §2

**Q.** With `CC(C)c1ccc2c(c1)CCC1[C@](C)(C(=O)NC(=S)N[C@H](C)C(=O)Nc3ccccc3Cl)CCC[C@]21C` (stereo partly drawn) [Compound 8d, (1R,4aS)-N-(((R)-1-((2-Chlorophenyl)amino)-1-oxopropan-2-yl)carbamothioyl)-7-isopropyl-1,4a-dimethyl-1,2,3,4,4a,9,10,10a-octahydrophenanthrene-1-carboxamide] as the molecule, how does the IC50 (MGC-803) read?
**A.** 20.6 ± 1.57 µM

**Q.** And the IC50 (HeLa)?
**A.** 19.7 ± 1.23 µM

**Q.** What about the IC50 (HL-7702) of the same molecule?
**A.** 69.4 ± 4.23 µM

**Q.** And the IC50 (SK-OV-3)?
**A.** 48.3 ± 4.21 µM

**Q.** Which results are given for `CC(C)c1ccc2c(c1)CCC1[C@](C)(C(=O)NC(=S)N[C@H](C)C(=O)Nc3ccccn3)CCC[C@]21C` (stereo partly drawn) [Compound 8n, (1R,4aS)-7-Isopropyl-1,4a-dimethyl-N-(((R)-1-oxo-1-(pyridin-2-ylamino)propan-2-yl)carbamothioyl)-1,2,3,4,4a,9,10,10a-octahydrophenanthrene-1-carboxamide]?
**A.** IC50 (MGC-803): 19.3 ± 1.32 µM; IC50 (HeLa): 14.3 ± 1.33 µM; IC50 (HL-7702): 48.8 ± 2.44 µM; IC50 (SK-OV-3): 25.2 ± 2.43 µM

**Q.** What does the source list for `CC(C)c1ccc2c(c1)CCC1[C@](C)(C(=O)NC(=S)N[C@H](Cc3ccccc3)C(=O)Nc3cccc4ccccc34)CCC[C@]21C` (stereo partly drawn) [Compound 9m, (1R,4aS)-7-Isopropyl-1,4a-dimethyl-N-(((R)-1-(naphthalen-1-ylamino)-1-oxo-3-phenylpropan-2-yl)carbamothioyl)-1,2,3,4,4a,9,10,10a-octahydrophenanthrene-1-carboxamide]?
**A.** IC50 (MGC-803): 22.9 ± 1.66 µM; IC50 (HeLa): 12.8 ± 1.2 µM; IC50 (HL-7702): 35.6 ± 1.53 µM; IC50 (SK-OV-3): 15.3 ± 1.73 µM

**Q.** For `COc1ccccc1NC(=O)[C@@H](C)NC(=S)NC(=O)[C@]1(C)CCC[C@]2(C)c3ccc(C(C)C)cc3CCC12` (stereo partly drawn) [Compound 8f, (1R,4aS)-7-Isopropyl-N-(((R)-1-((2-methoxyphenyl)amino)-1-oxopropan-2-yl)carbamothioyl)-1,4a-dimethyl-1,2,3,4,4a,9,10,10a-octahydrophenanthrene-1-carboxamide], which IC50 (MGC-803) is on record?
**A.** 17.9 ± 1.73 µM

**Q.** What about the IC50 (HeLa) of the same molecule?
**A.** 28.1 ± 2.11 µM

**Q.** And the IC50 (HL-7702)?
**A.** 44.7 ± 3.34 µM

**Q.** And the IC50 (SK-OV-3)?
**A.** 23 ± 3.01 µM

**Q.** What does the source list for `Cc1ccccc1NC(=O)[C@@H](Cc1ccccc1)NC(=S)NC(=O)[C@]1(C)CCC[C@]2(C)c3ccc(C(C)C)cc3CCC12` (stereo partly drawn) [Compound 9b, (1R,4aS)-7-Isopropyl-1,4a-dimethyl-N-(((R)-1-oxo-3-phenyl-1-(o-tolylamino)propan-2-yl)carbamothioyl)-1,2,3,4,4a,9,10,10a-octahydrophenanthrene-1-carboxamide]?
**A.** IC50 (MGC-803): 14.1 ± 1.12 µM; IC50 (HeLa): 17.7 ± 1.34 µM; IC50 (HL-7702): 38.6 ± 1.65 µM; IC50 (SK-OV-3): 18.5 ± 1.44 µM

**Q.** Which IC50 (MGC-803) does the source give for `CC(C)c1ccc2c(c1)CCC1[C@](C)(C(=O)NC(=S)N[C@H](C)C(=O)Nc3ccccc3Br)CCC[C@]21C` (stereo partly drawn) [Compound 8j, (1R,4aS)-N-(((R)-1-((2-Bromophenyl)amino)-1-oxopropan-2-yl)carbamothioyl)-7-isopropyl-1,4a-dimethyl-1,2,3,4,4a,9,10,10a-octahydrophenanthrene-1-carboxamide] here?
**A.** 27.9 ± 3.26 µM

**Q.** What about the IC50 (HeLa) of the same molecule?
**A.** 22.8 ± 1.55 µM

**Q.** And the IC50 (HL-7702)?
**A.** 59.6 ± 3.54 µM

**Q.** And the IC50 (SK-OV-3)?
**A.** 39.1 ± 3.56 µM

**Q.** Which results are given for `COc1ccccc1NC(=O)[C@@H](Cc1ccccc1)NC(=S)NC(=O)[C@]1(C)CCC[C@]2(C)c3ccc(C(C)C)cc3CCC12` (stereo partly drawn) [Compound 9f, (1R,4aS)-7-Isopropyl-N-(((R)-1-((2-methoxyphenyl)amino)-1-oxo-3-phenylpropan-2-yl)carbamothioyl)-1,4a-dimethyl-1,2,3,4,4a,9,10,10a-octahydrophenanthrene-1-carboxamide]?
**A.** IC50 (MGC-803): 20.7 ± 1.41 µM; IC50 (HeLa): 28.1 ± 2.23 µM; IC50 (HL-7702): 38.4 ± 1.45 µM; IC50 (SK-OV-3): 18.9 ± 1.72 µM

**Q.** Which IC50 (MGC-803) does the source give for `COc1ccc(NC(=O)[C@@H](C)NC(=S)NC(=O)[C@]2(C)CCC[C@]3(C)c4ccc(C(C)C)cc4CCC23)cc1` (stereo partly drawn) [Compound 8g, (1R,4aS)-7-Isopropyl-N-(((R)-1-((4-methoxyphenyl)amino)-1-oxopropan-2-yl)carbamothioyl)-1,4a-dimethyl-1,2,3,4,4a,9,10,10a-octahydrophenanthrene-1-carboxamide] here?
**A.** 18.6 ± 1.72 µM

**Q.** What about the IC50 (HeLa) of the same molecule?
**A.** 27.4 ± 2.43 µM

**Q.** And the IC50 (HL-7702)?
**A.** 43.6 ± 2.43 µM

**Q.** What about the IC50 (SK-OV-3) of the same molecule?
**A.** 26.8 ± 2.47 µM

**Q.** How did the IC50 (MGC-803) turn out when `CC(C)c1ccc2c(c1)CCC1[C@](C)(C(=O)NC(=S)N[C@H](Cc3ccccc3)C(=O)Nc3ccccc3Br)CCC[C@]21C` (stereo partly drawn) [Compound 9j, (1R,4aS)-N-(((R)-1-((2-Bromophenyl)amino)-1-oxo-3-phenylpropan-2-yl)carbamothioyl)-7-isopropyl-1,4a-dimethyl-1,2,3,4,4a,9,10,10a-octahydrophenanthrene-1-carboxamide] was run?
**A.** 21.3 ± 1.27 µM

**Q.** And the IC50 (HeLa)?
**A.** 12.7 ± 1.03 µM

**Q.** And the IC50 (HL-7702)?
**A.** 60.5 ± 3.43 µM

**Q.** And the IC50 (SK-OV-3)?
**A.** 40.3 ± 3.41 µM

**Q.** For `CC(C)c1ccc2c(c1)CCC1[C@](C)(C(=O)NC(=S)N[C@H](C)C(=O)Nc3ccc(Cl)cc3)CCC[C@]21C` (stereo partly drawn) [Compound 8e, (1R,4aS)-N-(((R)-1-((4-Chlorophenyl)amino)-1-oxopropan-2-yl)carbamothioyl)-7-isopropyl-1,4a-dimethyl-1,2,3,4,4a,9,10,10a-octahydrophenanthrene-1-carboxamide], which IC50 (MGC-803) is on record?
**A.** 21.7 ± 1.69 µM

**Q.** And the IC50 (HeLa)?
**A.** 36.1 ± 3.31 µM

**Q.** What about the IC50 (HL-7702) of the same molecule?
**A.** 57.7 ± 3.66 µM

**Q.** What about the IC50 (SK-OV-3) of the same molecule?
**A.** 36.1 ± 3.28 µM

**Q.** For `Cc1ccccc1NC(=O)[C@@H](C)NC(=S)NC(=O)[C@]1(C)CCC[C@]2(C)c3ccc(C(C)C)cc3CCC12` (stereo partly drawn) [Compound 8b, (1R,4aS)-7-Isopropyl-1,4a-dimethyl-N-(((R)-1-oxo-1-(o-tolylamino)propan-2-yl)carbamothioyl)-1,2,3,4,4a,9,10,10a-octahydrophenanthrene-1-carboxamide], which IC50 (MGC-803) is on record?
**A.** 19.2 ± 1.66 µM

**Q.** And the IC50 (HeLa)?
**A.** 29.2 ± 2.43 µM

**Q.** What about the IC50 (HL-7702) of the same molecule?
**A.** 52.5 ± 1.25 µM

**Q.** And the IC50 (SK-OV-3)?
**A.** 42.8 ± 1.42 µM
